# According to PubChem BioAssay (NCI):
# Where “and” joins values, the source holds several entries; their conditions need not be identical. Equal values may be shown once.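 These data come from cells grown in 96-well plates and exposed to compound for 48 hours at five concentrations. GI50 = concentration required for 50% inhibition of growth. Definition used: TGI = concentration required for complete inhibition of growth.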
# Legend:
# Assay in all cases: NCI-60 cell line screen, 48 h
# EKVX NSCLC = system: EKVX NSCLC
# HCC-2998 colon = system: HCC-2998 colon
# HL-60(TB) leukemia = system: HL-60(TB) leukemia
# HT29 colon = system: HT29 colon
# K-562 leukemia = system: K-562 leukemia
# MCF7 breast = system: MCF7 breast
# MDA-MB-231 breast = system: MDA-MB-231 breast
# NCI-H23 lung = system: NCI-H23 lung
# OVCAR-8 ovarian = system: OVCAR-8 ovarian
# SF-268 CNS = system: SF-268 CNS
# SF-295 CNS = system: SF-295 CNS
# SF-539 CNS = system: SF-539 CNS
# SK-MEL-5 melanoma = system: SK-MEL-5 melanoma
# SK-OV-3 ovarian = system: SK-OV-3 ovarian
# T-47D breast = system: T-47D breast
# UACC-257 melanoma = system: UACC-257 melanoma
Compound,TGI (EKVX NSCLC) [µM],TGI (HCC-2998 colon) [µM],TGI (HL-60(TB) leukemia) [µM],TGI (HT29 colon) [µM],TGI (K-562 leukemia) [µM],TGI (MCF7 breast) [µM],TGI (MDA-MB-231 breast) [µM],TGI (NCI-H23 lung) [µM],TGI (OVCAR-8 ovarian) [µM],TGI (SF-268 CNS) [µM],TGI (SF-295 CNS) [µM],TGI (SF-539 CNS) [µM],TGI (SK-MEL-5 melanoma) [µM],TGI (SK-OV-3 ovarian) [µM],TGI (T-47D breast) [µM],TGI (UACC-257 melanoma) [µM],GI50 (HL-60(TB) leukemia),GI50 (HT29 colon),GI50 (SK-MEL-5 melanoma)
CCOC(=O)C1=NOC2(C=C(Br)C(=O)C(Br)=C2)C1,5.45,3.22,1.1,4.68,6.42,11.1,21.9,9.41,5.3,29.1,32.4,20.2,21.7,21.1,3.99,2.71,,,
CC(=O)c1ccc2c(c1)CC1(C2)Cc2cc3c(cc2C1=O)CCC3 (centres undefined),64.8,68.4,35.8,> 100,> 100,43.8,49.6,89.1,36.1,88,49,72.4,22.5,96.3,88.5,30.2,,,
C[C@]12CC[C@@H]3c4cc(OCC(F)(F)F)c(O)cc4CC[C@H]3[C@@H]1CC[C@@H]2O,30.7,16.9,10.7,15.3,13.5,17.3,3.11,19.3,34.3,35.2,11.6,7.27,15.4,16.8,49.5,21.4,,,
CCOC(=O)C1C(c2ccc3c(c2)OCO3)c2c([nH][nH]c2=O)CC1(C)O (centres undefined),> 100,> 100,> 100,> 100,,> 100,> 100,> 100,> 100,> 100,> 100,> 100,> 100,,> 100,> 100,,,
O=C(c1ccccc1)c1ccc2nc(-c3c(Cl)c(Cl)c(Cl)c(Cl)c3C(=O)N/N=C/c3ccc(Cl)cc3)[nH]c2c1,> 100,,21.1,> 100,> 100,71.8,61.4,> 100,> 100,> 100,> 100,> 100,45.7,> 100,88,> 100,,,
Nc1n[n+](CC(=O)c2ccccc2)c2sc(-c3ccccc3)nn12,> 100,,,> 100,> 100,> 100,> 100,> 100,> 100,> 100,> 100,> 100,> 100,> 100,> 100,> 100,,,
CNC(=O)C1(N)c2ccccc2C=Cc2ccccc21,> 100,,> 100,> 100,> 100,> 100,> 100,> 100,> 100,> 100,> 100,> 100,> 100,> 100,> 100,,,,
O=C(NC1=C(Cl)C(=O)c2ccccc2C1=O)c1ccc(F)cc1,78.9,15.1,> 100,11.5,,17.1,18.9,13.7,19.3,38.9,13.8,18.7,,,4.93,7.43,,,
COc1cc(/C=C/c2nc(NC(=S)Nc3ccccc3)nnc2C)cc(OC)c1OC,> 100,26.4,34.1,48.8,78.2,> 100,> 100,66.9,> 100,> 100,> 100,,29.1,> 100,90.1,> 100,,,
CCC(C=O)P1(=O)OC(C)(C)CN1C(C)(C)C (centres undefined),> 100,> 100,,> 100,> 100,> 100,> 100,> 100,> 100,> 100,> 100,> 100,> 100,> 100,> 100,> 100,,,
COc1cc2c(cc1OC)C1C=NC(C2)c2cc(OC)c(OC)cc21 (centres undefined),> 100,> 100,> 100,> 100,> 100,> 100,> 100,,> 100,> 100,> 100,> 100,> 100,> 100,> 100,> 100,,,
CC1(/C=C/CCSc2ccccc2)CC(=O)C2CC1C2(C)C (centres undefined),> 100,> 73.5,,29.4,> 100,> 100,> 100,> 100,> 100,> 100,> 100,31.5,23,> 100,> 100,> 73.6,,,
O=C1OCC2OC(=O)c3cc(O)c(O)c(O)c3-c3c(O)c(O)c(O)c4c3C(=O)OC(C2OC(=O)c2cc(O)c(O)c(O)c2-c2c1cc(O)c(O)c2O)C1OC(=O)c2c-4c(O)c(O)c(O)c2[C@@H]1C(O)C(O)C(O)C(O)CO (some centres undefined),51.1,64.2,50.8,36,33.3,17.6,30.5,43.5,44.1,47.4,43.7,,28,59,45.2,46.7,,,
Cn1c(=O)c2c(nc3n2CC(=O)N3CCCCl)n(C)c1=O,> 100,> 100,> 100,> 100,> 100,> 100,> 100,> 100,> 100,> 100,> 100,,> 100,> 100,> 100,> 100,,,
CS(=O)(=O)OCC1CN(S(C)(=O)=O)c2cc(O)ccc21 (centres undefined),16,4.47,6.59,11.1,10.3,26.2,6.8,6.61,11.5,13.5,14.6,7,3.52,,1.96,7.72,,,
C/C(=N\Nc1ccc([N+](=O)[O-])cc1[N+](=O)[O-])c1sc(-n2nc(-c3ccccc3)cc2-c2ccccc2)nc1C,> 100,> 100,44.5,33.8,,> 100,> 100,> 100,> 100,> 100,> 100,> 100,> 100,> 100,> 100,84.7,,,
CC(C)(C)OC(=O)NC(Cc1ccccc1)OCc1ccccc1 (centres undefined),35.9,43.7,,44.5,66.2,35.9,30.2,46.3,39.9,36.2,31.2,39,31,31.4,39.8,> 10,,,
O=c1[nH]cc(-c2c[nH]c3ccccc23)nc1-c1c[nH]c2ccccc12,24.6,21.6,,,9.21,54.7,89.2,31.5,25.7,27.9,19,55.5,26.1,26.2,41.9,26.9,,,
COC(=O)[C@@H]1CC(C(C[N+](=O)[O-])c2ccc(O[Si](C)(C)C(C)(C)C)cc2)C(=O)N1C(=O)OC(C)(C)C (some centres undefined),> 100,,> 100,> 100,> 100,> 100,> 100,,> 100,> 100,> 100,> 100,> 100,> 100,> 100,> 100,> 100 µM and 46.2 µM,> 100 µM and 47.8 µM,> 100 µM and 39.9 µM
CCN(CC)CC1CCCCN1CC(=O)N1c2ccccc2C(=O)Nc2cccnc21 (centres undefined),> 100,> 100,35,> 100,,> 100,75.8,> 100,> 100,> 100,> 100,> 100,> 100,> 100,> 100,75.2,,,
Cc1cc(C)c(-n2[nH]c(=O)n(C)c2=O)c(C)c1,> 100,> 100,> 100,> 100,> 100,> 100,> 100,> 100,> 100,> 100,,> 100,> 100,> 100,> 100,> 100,,,
COc1c(F)c(F)c(/C(O)=C\c2nc3ccccc3[nH]c2=O)c(F)c1F,> 10,> 10,> 10,> 10,> 10,> 10,> 10,> 10,> 10,> 10,> 10,,> 10,> 10,> 10,> 10,,,
Cc1n[nH]c(=O)n1N1C(=O)CCCC1=O,> 100,> 100,,> 100,> 100,> 100,> 100,> 100,> 100,> 100,> 100,> 100,> 100,> 100,> 100,> 100,,,
